What all share (format): in vivo
One series deals with Spodoptera litura. As to the kind of experiment: Efficacy test against Spodoptera litura. Particulars: 144 h, cabbage leaves soaked, second-instar larvae, after 6 days, read-out: insect mortality rate. As for the experimental part: (§1) 5 parts of the compound of the present invention, 93.6 parts of dimethylformamide, and 1.4 parts of polyoxyethylene alkylaryl ether were mixed and dissolved to prepare an emulsion (I) of 5% of the active ingredient.
(§2) The insect mortality rate and the control rate were calculated by the following formula. Insect mortality rate (%)=(number of dead insects/number of sample insects)×100 Prevention rate=[1−(Nt)/(Nc)]×100
Emulsion (I) was diluted with water so that the concentration of the compound of the present invention reaches 125 ppm. Cabbage leaves were soaked in the diluted liquid for 30 seconds. Then the cabbage leaves were put on Petri dishes, followed by inoculating 5 second-instar larvae of Spodoptera litura. The Petri dishes were placed in a thermostatic chamber with a temperature was 25° C. and a humidity of 60%. Life or death judgement was performed after 6 days were passed, and the insect mortality rate was calculated. The test was repeated twice.

The next series has as its system Phyllotreta striolata. Nature of the series: Efficacy test against Phyllotreta striolata. Particulars: 168 h, spray on bok choy seedlings, adults, 7 days after releasing, read-out: insect mortality rate. As to the method: as §1, §2
Emulsion (I) was diluted with water so that the compound of the present invention reaches 125 ppm to prepare a test solution. The above diluted solution was sprayed on bok choy seedlings (seventh true leaf development stage) planted in No. 3 pots. After air-drying, the bok choy seedlings were put in a plastic cup and 10 adult Phyllotreta striolata were released therein. The plastic cup was stored in a thermostatic chamber with a temperature of 25° C. and a humidity of 65%, and life or death judgment was performed 7 days after releasing Phyllotreta triolata, and the insect mortality rate was calculated by the formula. The test was repeated twice.

The test system of another series is Plutella xylostella. As to the kind of experiment: Efficacy test against Plutella xylostella. As to conditions: 72 h, cabbage leaves soaked, second-instar larvae, after 3 days, read-out: mortality rate. As for the experimental part:
as §1, §2
Emulsion (I) was diluted with water so that the concentration of the compound of the present invention reaches 125 ppm. Cabbage leaves were soaked in the diluted liquid for 30 seconds. Then the cabbage leaves were put on Petri dishes, followed by inoculating 5 second-instar larvae of Plutella xylostella. The Petri dishes were placed in a thermostatic chamber with a temperature was 25° C. and a humidity of 60%. Life or death judgement was performed after 3 days were passed, and the insect mortality rate was calculated. The test was repeated twice.

The next series has as its system Aphis craccivora. Nature of the series: Efficacy test against Aphis craccivora. As to conditions: 96 h, spray on infested cowpea plants, nymphs, 4 days after spraying, read-out: mortality rate. As for the experimental part: as §1, §2
Cowpea plants were raised in No. 3 pots and the first true leaves were inoculated with Aphis craccivora nymphs. Emulsion (I) was diluted with water so that the concentration of the compound of the present invention reaches 125 ppm, followed by spraying the diluted liquid on the cowpea plants infested with Aphis craccivora nymphs. The cowpea plants were then placed in a thermostatic chamber with a temperature of 25° C. and a humidity of 60%. Life or death judgement was performed after 4 days were passed from the spraying, and the insect mortality rate of Aphis craccivora was calculated. The test was repeated twice.

For another series, the system named is Culex pipiens. Nature of the series: Efficacy test against Culex pipiens. As to conditions: Culex pipiens, 24 h, read-out: insect mortality rate. As for the experimental part:
as §1, §2
Emulsion (I) was diluted with water so that the concentration of the compound of the present invention reaches 2 ppm to prepare a chemical solution for test. 20 first-instar larvae of Culex pipiens were released into 100 ml of the chemical solution for test, then the number of dead insects was calculated after 1 day was passed, and the insect mortality rate was calculated by the formula. The test was repeated twice.

The subject of another series is Aedes aegypti larvae. As to the kind of experiment: Contact/feeding effect test on Aedes aegypti larvae. As to conditions: final concentration of 10 ppm, first-instar larvae, 48 hours, read-out: insect mortality rate. As for the experimental part:
A DMSO solution of the compound of the present invention was diluted with water to obtain a diluted solution with a concentration of 100 ppm. 10 first-instar larvae of Aedes aegypti were placed in each well of a 96-well microtiter plate together with breeding water, and 1/10 volume of the diluted solution with a concentration of 100 ppm was added so that the test was carried out at a final concentration of 10 ppm. The microtiter plate was incubated in a thermostatic chamber with a temperature of 28° C. and a humidity of 80%, and life or death judgement was performed on the larvae was investigated 48 hours after the chemical treatment. The test was repeated twice.

In a further series the test system is Lucilia cuprina larvae. As to the kind of experiment: Contact/feeding effect test on Lucilia cuprina larvae. As to conditions: 1000 ppm in horse meat, 48 hours, read-out: insect mortality rate. As to the method: A DMSO solution of the compound of the present invention was mixed with horse meat to obtain a mixture with a concentration of 1000 ppm. 20 Lucilia cuprina larvae were introduced into a test tube with the mixture. The tube was incubated in a thermostatic chamber with a temperature of 28° C. and a humidity of 80%, and life and death judgement was performed on the larvae 48 hours after the start of the test. The test was repeated twice.

The next series concerns Ornithodorus moubata. Nature of the series: Feeding effect test against Ornithodorus moubata. As to conditions: 10 ppm in defibrin blood of sheep; third-nymphs; 14 days after the blood sucking. As for the experimental part: A DMSO solution of the compound of the present invention was mixed with a defibrin blood of sheep to obtain a mixed solution with a concentration of 10 ppm. 2 ml of this mixed solution was placed in a container and capped with a parafilm membrane. Then, 20 third-nymphs of Ornithodorus moubata ere released to suck the blood through the parafilm membrane for about 30 minutes. Then, the nymphs were transferred to a storage container and incubated in a thermostatic chamber with a temperature of 28° C. and a humidity of 80%, and life or death judgement and developmental stage-investigation was performed 14 days after the blood sucking. The test was repeated twice.

In a further series the test system is Rhipicephalus microplus. As to the kind of experiment: Contact effect test on Rhipicephalus microplus. As to conditions: larvae, 24 hours after the chemical treatment, read-out: insect mortality rate. As to the method:
A DMSO solution of the compound of the present invention was diluted with water to obtain a test solution with a concentration of 100 ppm. This chemical solution was dropped into a container containing 20 Rhipicephalus microplus larvae, and then incubated in a thermostatic chamber with a temperature of 28° C. and a humidity of 80%. Life or death judgement was performed on the larvae 24 hours after the chemical treatment. The test was repeated twice.

The subject of a further series is Musca domestica. Nature of the series: Efficacy test against Musca domestica. As to conditions: 100 ppm on cube sugar, adult female, after 24 hours, read-out: insect mortality rate. As to the method:
as §2
The compound of the present invention was diluted with acetone, followed by dropping to 1 g of cube sugar so that the concentration reaches to 100 ppm. The cube sugar was placed in a plastic cup and 10 adult female Musca domestica were released therein, followed by putting a lid on the cup. The cup was kept at 25° C., and life or death judgement was performed after 24 hours was passed from the releasing of Musca domestica, and the insect mortality rate was calculated by the formula. The test was repeated twice.

Another series deals with Pseudaletia separata. Nature of the series: Efficacy test against Pseudaletia separata (artificial diet). Particulars: in vivo. As to the method:
as §1, §2
0.8 g of commercially available artificial diet (Insecta US, manufactured by Nosan Corporation) and 1 μl of emulsion (1) were well mixed and 0.2 g of the resulting mixture was packed in a plastic test container (1.4 ml) per each treatment group to prepare test feeds.
2 second-instar larvae of Pseudaletia separata were inoculated into each treatment group and sealed with a plastic lid. The plastic test containers were placed in a thermostatic chamber with a temperature of 25° C., and the insect mortality rate and the food intake amount were investigated on the fifth day. The test was repeated twice.
Further, a test under the same conditions except that the compound of the present invention was removed from emulsion (I) was conducted as a solvent control group.

Another series relates to Rhopalosiphum padi. As to the kind of experiment: Efficacy test against Rhopalosiphum padi (seed treatment). As to conditions: 0.1 g compound per 10 g wheat seeds, adults released 7 days after seeding, counted after 6 days. As for the experimental part:
as §2
Nt: number of parasites in spray-treatment area
Nc: number of parasites in control area
0.1 g of each compound of the present invention was diluted with 2 ml of acetone to prepare chemical solutions for test. 10 g of wheat seeds was added to the chemical solution for test and air dried, followed by seedling 100 seeds in a planter. After keeping the planter in a warm room with a temperature of 25° C. for 7 days, 50 adult Rhopalosiphum padi were released in the planter. The number of surviving parasitized Rhopalosiphum padi was investigated after 6 days were passed, and the prevention rate was calculated by the formula. The test was repeated twice.

On to `CCS(=O)(=O)c1cc(C(F)(F)F)ccc1-n1ncc(-c2ccc(OC(F)(F)F)cc2)c1Cl` [Compound 1-17, 5-chloro-1-(2-(ethylsulfonyl)-4-(trifluoromethyl)phenyl)-4-(4-(trifluoromethoxy)phenyl)-1H-pyrazole], for which the mortality at 125 ppm in the series on Spodoptera litura, with Phyllotreta striolata, with Plutella xylostella and in the series on Aphis craccivora was at least 80% in each case.
Turning to `CCS(=O)(=O)c1cc(C(F)(F)F)ccc1-n1ncc(-c2ccc(OC(F)(F)F)cc2)c1N` [Compound 1-12, 1-(2-(ethylsulfonyl)-4-(trifluoromethyl)phenyl)-4-(4-(trifluoromethoxy)phenyl)-1H-pyrazol-5-amine], the mortality (in general, the share of the test organisms that died) at 2 ppm with Culex pipiens turned out to be 100%. Moreover, the mortality at 10 ppm with Aedes aegypti larvae is at least 90%. The mortality at 1000 ppm with Lucilia cuprina larvae is at least 90%. Moreover, the mortality at 125 ppm in the series on Spodoptera litura, with Phyllotreta striolata, in the series on Plutella xylostella and in the series on Aphis craccivora was at least 80% in each case. The insect mortality rate in the series with Ornithodorus moubata is recorded as at least 90%. For the same molecule, the mortality at 100 ppm in the series with Rhipicephalus microplus was at least 90%; with Musca domestica, at least 80%.
With `CCS(=O)(=O)c1cc(C(F)(F)F)ccc1-n1ncc(-c2ccc(C(F)(F)C(F)(F)F)nc2)c1N` [Compound 1-33], the insect mortality rate with Pseudaletia separata turned out to be 100%. In addition, the prevention rate in the series with Rhopalosiphum padi is recorded as at least 80%.
